Results published in article PMC9655717, “New Molecules of Diterpene Origin with Inhibitory Properties toward α-Glucosidase” (International Journal of Molecular Sciences, 2022).

Assays:
[1] = target: T1, α-glucosidase (Sigma G0660) (Saccharomyces cerevisiae, UniProt P53341); experiment: Kinetic study of α-glucosidase inhibition (Michaelis-Menten, pNPG); type: biochemical, yeast
T1 construct: purchased Sigma G0660
Procedure: The method’s principle based on the hydrolyzed reaction of 4-nitrophenyl-α-D-glucopiranoside with α-glucosidase enzyme into yellow 4- […]
The kinetic assay was performed according to the method using a series of […]
μL of 100 mM phosphate buffer (pH 6.8), 25 μL of α-glucosidase (0.4 U/mL, Sigma G0660) were pre-incubated for 10 min at 37 °C. DMSO was added to the respective control wells to a 0.64% final concentration. The reaction was initiated with the addition of 25 μL of p-nitrophenyl-[…] (pNPG, Sigma N1377) solution in a range of final concentrations. The amount of released p-nitrophenol from pNPG was immediately measured at 410 nm with Infinite M200 PRO (Tecan, Austria). Conversion of optical density to nM p-nitrophenol was performed with a standard curve. Reaction rates were determined from the linear parts of kinetic curves and fitted to the Michaelis-Menten equation. The assay was performed in triplicate wells and two independent […]
Ligands were prepared with MarvinSketch 18.8.0 (ChemAxon Ltd.). Ligands were hydrogenized and conformations with minimal potential energy were obtained using the MMFF94 force field. The homology model of S. cerevisiae α-glucosidase was obtained with SWISS-MODEL as described previously. Protein and ligand structures followed standard preparation procedure using AutoDocTools 1.5.6. We used AutoDock Vina 1.1.211 to perform all docking runs. The grid box with 70×80×80 Å dimensions was centered on the enzyme molecule to include the entire 3D space around the protein. The top-score binding poses were used in subsequent analysis. […]
(Dassault Systemes Biovia Corp.).
DPPH (0.1 mM) was diluted in methanol. 200 μL of this solution was added to 1.3 μL of various concentrations of compounds in DMSO (256.0, 64.0, 16.0, and 4.0 μg/mL). The mixture was performed by a 96-well plate at 25 °C in 30 min. […]

[2] = DPPH radical scavenging assay; details: DPPH 0.1 mM in methanol, 25°C, 30 min
Procedure: DPPH radical scavenging assay as described by Ha. The hydrogen atom donating ability of the plant extractives was determined by the decolorization of methanol solution of 2,2-diphenyl-1-picrylhydrazyl (DPPH). DPPH produces purple color in methanol solution and fades to shades of yellow color in the presence of antioxidants. […]
DPPH (0.1 mM) was diluted in methanol. 200 μL of this solution was added to 1.3 μL of various concentrations of compounds in DMSO (256.0, 64.0, 16.0, and 4.0 μg/mL). The mixture was performed by a 96-well plate at 25 °C in 30 min. Then, absorbance was determined by Epoch™ Microplate Spectrophotometer (at 517 nm). The percentage of DPPH quenching activity was computed by the following formula:
Inhibitory percentage SC (%) = [(Ao - A1)/Ao] × 100. where AO was defined as the absorbance of control reaction, and A1 represented for the absorbance in the presence of test or standard sample. Each experiment was repeated three times. Quercetin was used as a reference compound. […]

T1 sequence (P53341 whole entry): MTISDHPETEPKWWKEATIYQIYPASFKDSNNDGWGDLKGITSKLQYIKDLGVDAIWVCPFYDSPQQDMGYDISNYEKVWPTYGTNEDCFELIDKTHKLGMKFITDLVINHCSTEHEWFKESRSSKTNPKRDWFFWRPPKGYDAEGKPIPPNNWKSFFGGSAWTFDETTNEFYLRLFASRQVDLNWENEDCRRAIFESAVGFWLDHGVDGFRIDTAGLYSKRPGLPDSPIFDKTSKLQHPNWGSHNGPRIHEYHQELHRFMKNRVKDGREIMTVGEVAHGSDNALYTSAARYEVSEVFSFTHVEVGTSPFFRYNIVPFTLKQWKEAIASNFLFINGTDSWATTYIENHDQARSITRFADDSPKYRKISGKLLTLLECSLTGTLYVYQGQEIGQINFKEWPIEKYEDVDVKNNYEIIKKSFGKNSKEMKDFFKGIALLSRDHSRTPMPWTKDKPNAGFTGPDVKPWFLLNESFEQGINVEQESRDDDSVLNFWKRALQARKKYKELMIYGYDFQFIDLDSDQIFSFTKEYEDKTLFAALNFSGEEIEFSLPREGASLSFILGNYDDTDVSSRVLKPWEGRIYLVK

For `C#CCOC(=O)C1(C)CCCC2(C)C1CCC13C=C(C(C)C)C(CC12)c1c(O)cc2c(C(=O)OC)c(C)[nH]c2c13` (centres unmarked) [Compound 45, Methyl 7-propynyl 1-hydroxy-13-isopropyl-7,10a,2′-trimethyl-5,6,6b,7,8,9,10,10a,10b,11,12,13-dodecahydro-12,4b-ethenophenanthro [2,1-g]indole-7,1′-dicarboxylate], which Vmax ([1]; Compound 45 at 25 μM) is on record?
The Vmax was 2.277 nM/min.

What about the Vmax ([1]; Compound 45 at 50 μM) of the same compound?
Its Vmax is 2.221 nM/min.

And the Vmax ([1]; Compound 45 at 100 μM)?
The Vmax was 2.249 nM/min.

And the “mechanism of α-glucosidase inhibition” value ([1]; Michaelis-Menten nonlinear regression)?
Its value is “competitive inhibitor”.

What about the “IC50 values, antioxidant test (DPPH)” value [2] of the same compound?
Its value is greater than 256 µg/mL.
